According to the supplement of paper PMC10307832:

Experiments:
Experiment in all cases: relative viability (nuclei count vs DMSO), 5 days (fraction); higher = more cells survive
TPCA-1 + Bortezomib = compound: C1=CC(=CC=C1C2=CC(=C(S2)NC(=O)N)C(=O)N)F [TPCA-1] + CC(C)C[C@H](NC(=O)[C@H](Cc1ccccc1)NC(=O)c1cnccn1)B(O)O [Bortezomib] (partner 0.002 µM)
Procedure, shortened: (§1)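 One day after seeding in 1536-well plates, lung cancer cell lines were dosed by pin tool. Dosing was either single-drug or a fixed anchor-drug dose plus five library-drug doses (not always all listed) in √10 steps. After 5 days, nuclei were stained in one fix-and-stain step and counted on 4× images, and relative viability is the nuclei count of treated wells over that of vehicle wells, given as the median of duplicate plates.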

TPCA-1 + Tozasertib = compound: C1=CC(=CC=C1C2=CC(=C(S2)NC(=O)N)C(=O)N)F [TPCA-1] + Cc1cc(Nc2cc(N3CCN(C)CC3)nc(Sc3ccc(NC(=O)C4CC4)cc3)n2)n[nH]1 [Tozasertib] (partner 0.1 µM)
Procedure, shortened: as §1

[1] = compound: C[C@]12O[C@H](C[C@]1(O)CO)n1c3ccccc3c3c4c(c5c6ccccc6n2c5c31)CNC4=O [Lestaurtinib] + CC1(C)CCC(c2ccc(Cl)cc2)=C(CN2CCN(c3ccc(C(=O)NS(=O)(=O)c4ccc(N[C@H](CCN5CCOCC5)CSc5ccccc5)c(S(=O)(=O)C(F)(F)F)c4)cc3)CC2)C1 [Navitoclax] (partner 0.5 µM)
Procedure, shortened: as §1

[2] = compound: C[C@]12O[C@H](C[C@]1(O)CO)n1c3ccccc3c3c4c(c5c6ccccc6n2c5c31)CNC4=O [Lestaurtinib] + Nc1nc2[nH]cc(CCc3ccc(C(=O)N[C@@H](CCC(=O)O)C(=O)O)cc3)c2c(=O)[nH]1 [Pemetrexed] (partner 0.2 µM)
Procedure, shortened: as §1

Cell Line | relative viability (TPCA-1 + Bortezomib; first compound 0.04 µM) | relative viability (TPCA-1 + Bortezomib; first compound 0.1265 µM) | relative viability (TPCA-1 + Bortezomib; first compound 0.4 µM) | relative viability (TPCA-1 + Bortezomib; first compound 1.265 µM) | relative viability (TPCA-1 + Bortezomib; first compound 4 µM) | relative viability (TPCA-1 + Tozasertib; first compound 0.04 µM) | relative viability (TPCA-1 + Tozasertib; first compound 0.1265 µM) | relative viability (TPCA-1 + Tozasertib; first compound 0.4 µM) | relative viability (TPCA-1 + Tozasertib; first compound 1.265 µM) | relative viability (TPCA-1 + Tozasertib; first compound 4 µM) | relative viability ([1]; first compound 0.005 µM) | relative viability ([1]; first compound 0.01581 µM) | relative viability ([1]; first compound 0.05 µM) | relative viability ([1]; first compound 0.1581 µM) | relative viability ([1]; first compound 0.5 µM) | relative viability ([2]; first compound 0.005 µM) | relative viability ([2]; first compound 0.01581 µM) | relative viability ([2]; first compound 0.05 µM) | relative viability ([2]; first compound 0.1581 µM) | relative viability ([2]; first compound 0.5 µM)
PC-3 [JPC-3] | 0.896 | 0.812 | 0.833 | 0.792 | 0.851 | 0.869 | 0.874 | 0.892 | 0.848 | 0.545 | 0.84 | 0.788 | 0.763 | 0.65 | 0.55 | 0.747 | 1.5 | 0.918 | 0.94 | 0.613
LOU-NH91 | 0.508 | 0.514 | 0.502 | 0.523 | 0.574 | 0.769 | 0.57 | 0.639 | 0.602 | 0.423 | 0.698 | 0.583 | 0.438 | 0.371 | 0.272 | 0.413 | 0.509 | 0.448 | 0.583 | 0.338
PC-14 | 0.903 | 0.787 | 0.936 | 0.785 | 0.574 | 0.587 | 0.55 | 0.58 | 0.585 | 0.28 | 1.09 | 1.07 | 0.765 | 0.863 | 0.607 | 0.153 | 0.131 | 0.154 | 0.154 | 0.0792
NCI-H2087 | 0.777 | 0.709 | 0.666 | 0.815 | 0.455 | 0.243 | 0.239 | 0.28 | 0.2 | 0.116 | 0.946 | 0.853 | 0.686 | 0.707 | 0.26 | 0.708 | 0.688 | 0.675 | 0.632 | 0.332
LU99A | 1.32 | 1.13 | 1.01 | 0.971 | 0.48 | 0.276 | 0.276 | 0.226 | 0.242 | 0.199 | 0.707 | 0.72 | 0.373 | 0.378 | 0.211 | 0.152 | 0.153 | 0.217 | 0.14 | 0.128
BEN | 1.17 | 0.53 | 0.805 | 0.999 | 0.587 | 0.548 |  | 0.526 | 0.628 | 0.403 | 0.0676 | 0.07 | 0.0559 | 0.0652 | 0.0525 | 0.782 | 0.841 | 0.663 | 0.555 | 0.358
SK-LU-1 | 1.26 | 0.962 | 1.1 | 0.879 | 0.739 | 0.333 | 0.297 | 0.309 | 0.253 | 0.248 | 0.822 | 0.736 | 0.509 | 0.292 | 0.173 | 1 | 0.802 | 0.476 | 0.457 | 0.284
NCI-H1975 | 0.327 | 0.417 | 0.321 | 0.437 | 0.26 | 0.796 | 0.697 | 0.737 | 0.407 | 0.312 | 1.25 | 1.23 | 1.03 | 0.666 | 0.473 | 0.298 | 0.295 | 0.292 | 0.281 | 0.218
RERF-LC-KJ | 1.32 | 1.09 | 0.857 | 0.916 | 0.998 | 0.556 | 0.518 | 0.61 | 0.43 | 0.29 | 1.24 | 1.1 | 0.792 | 0.618 | 0.641 | 0.482 | 0.496 | 0.417 | 0.455 | 0.351
NCI-H441 | 0.63 | 0.32 | 0.42 | 0.266 | 0.404 | 0.946 | 0.632 | 0.506 | 0.379 | 0.28 | 0.48 | 0.575 | 0.571 | 0.448 | 0.313 | 0.272 | 0.258 | 0.238 | 0.277 | 0.285
HCC-78 | 0.437 | 0.439 | 0.531 | 0.27 | 0.281 | 0.406 | 0.413 | 0.427 | 0.477 | 0.205 | 0.897 | 0.906 | 0.533 | 0.333 | 0.211 | 0.9 | 0.918 | 0.851 | 1 | 0.903
NCI-H1915 | 0.949 | 0.961 | 0.954 | 0.664 | 0.886 | 0.435 | 0.428 | 0.435 | 0.362 | 0.229 | 0.766 | 0.801 | 0.774 | 0.724 | 0.503 | 0.589 | 0.432 | 0.458 | 0.447 | 0.205
